Measurements: paper PMC7044277 (Nature Communications, 2020)
Several values for one entry are separate records, joined by “and”; a condition that tells them apart may be missing. Equal entries are not always repeated.

Experiments:
Type in all cases: cell-based
Set-up in all cases: GPCRome screening signal at PTGIR / GPCRome screening signal at PTH1R / GPCRome screening signal at PTH2R / GPCRome screening signal at QRFP / GPCRome screening signal at RXFP2 / GPCRome screening signal at RXFP3 / GPCRome screening signal at RXFP4 / GPCRome screening signal at S1PR2 / GPCRome screening signal at S1PR3 / GPCRome screening signal at S1PR4 / GPCRome screening signal at S1PR5 / GPCRome screening signal at SCTR / GPCRome screening signal at SSTR2 / GPCRome screening signal at SSSTR / GPCRome screening signal at SSTR4 / GPCRome screening signal at SSTR5 / GPCRome screening signal at SUCNR1 / GPCRome screening signal at TA1 / GPCRome screening signal at TAAR2 / GPCRome screening signal at TAAR5 / GPCRome screening signal at TAAR6 / GPCRome screening signal at TAAR8 / GPCRome screening signal at TACR1 / GPCRome screening signal at TACR2 / GPCRome screening signal at TACR3 / GPCRome screening signal at TBXA2R / GPCRome screening signal at TSHR / GPCRome screening signal at UTS2R / GPCRome screening signal at VIPR2 / GPCRome screening signal at GPR68 no V2 Tail / GPCRome screening signal at GRM2 / GPCRome screening signal at GRM3: reference not given here
320 non-olfactory GPCRs [1] = molecular target: 320 non-olfactory GPCRs (Homo sapiens, UniProt P30874); conditions: receptor SSTR2
320 non-olfactory GPCRs [2] = molecular target: T1, 320 non-olfactory GPCRs (Homo sapiens, UniProt P41587); conditions: receptor VIPR2
T1 construct: expressed in transfected cells; host or cells: HTLA cells

320 non-olfactory GPCRs [3] = molecular target: T2, 320 non-olfactory GPCRs (Homo sapiens, UniProt P43119); conditions: receptor PTGIR
T2 construct: expressed in transfected cells; host or cells: HTLA cells

320 non-olfactory GPCRs [4] = molecular target: T3, 320 non-olfactory GPCRs (Homo sapiens, UniProt Q14416); conditions: receptor GRM2
T3 construct: expressed in transfected cells; host or cells: HTLA cells

[5] = Fig_5f, single replicate values
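For GPCRome agonism screen response in this document: fold over basal response of each receptor without drug.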

T2 sequence (P43119 whole entry): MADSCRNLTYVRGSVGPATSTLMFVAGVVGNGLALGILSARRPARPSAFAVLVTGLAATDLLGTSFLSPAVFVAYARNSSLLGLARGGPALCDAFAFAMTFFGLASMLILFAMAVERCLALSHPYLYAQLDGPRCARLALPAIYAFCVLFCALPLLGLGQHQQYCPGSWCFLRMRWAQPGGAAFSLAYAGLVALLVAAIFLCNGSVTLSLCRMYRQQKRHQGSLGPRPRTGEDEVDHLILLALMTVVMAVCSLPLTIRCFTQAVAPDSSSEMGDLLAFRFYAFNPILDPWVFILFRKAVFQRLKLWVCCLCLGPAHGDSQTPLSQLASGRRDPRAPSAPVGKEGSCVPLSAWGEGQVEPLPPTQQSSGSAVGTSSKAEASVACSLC
Chain of 320 non-olfactory GPCRs (Homo sapiens, UniProt P30874) (P30874 whole entry): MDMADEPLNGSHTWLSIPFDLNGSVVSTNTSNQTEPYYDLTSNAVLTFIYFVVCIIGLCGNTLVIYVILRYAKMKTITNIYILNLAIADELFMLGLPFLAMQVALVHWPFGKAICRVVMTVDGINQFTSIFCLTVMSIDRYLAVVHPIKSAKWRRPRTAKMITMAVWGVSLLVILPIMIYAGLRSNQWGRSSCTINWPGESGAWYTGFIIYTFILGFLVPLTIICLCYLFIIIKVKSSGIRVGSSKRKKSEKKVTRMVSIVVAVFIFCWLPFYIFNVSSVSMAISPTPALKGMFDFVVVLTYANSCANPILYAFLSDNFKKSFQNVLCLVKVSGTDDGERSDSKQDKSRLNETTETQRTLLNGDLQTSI
T3 sequence (Q14416 19-872): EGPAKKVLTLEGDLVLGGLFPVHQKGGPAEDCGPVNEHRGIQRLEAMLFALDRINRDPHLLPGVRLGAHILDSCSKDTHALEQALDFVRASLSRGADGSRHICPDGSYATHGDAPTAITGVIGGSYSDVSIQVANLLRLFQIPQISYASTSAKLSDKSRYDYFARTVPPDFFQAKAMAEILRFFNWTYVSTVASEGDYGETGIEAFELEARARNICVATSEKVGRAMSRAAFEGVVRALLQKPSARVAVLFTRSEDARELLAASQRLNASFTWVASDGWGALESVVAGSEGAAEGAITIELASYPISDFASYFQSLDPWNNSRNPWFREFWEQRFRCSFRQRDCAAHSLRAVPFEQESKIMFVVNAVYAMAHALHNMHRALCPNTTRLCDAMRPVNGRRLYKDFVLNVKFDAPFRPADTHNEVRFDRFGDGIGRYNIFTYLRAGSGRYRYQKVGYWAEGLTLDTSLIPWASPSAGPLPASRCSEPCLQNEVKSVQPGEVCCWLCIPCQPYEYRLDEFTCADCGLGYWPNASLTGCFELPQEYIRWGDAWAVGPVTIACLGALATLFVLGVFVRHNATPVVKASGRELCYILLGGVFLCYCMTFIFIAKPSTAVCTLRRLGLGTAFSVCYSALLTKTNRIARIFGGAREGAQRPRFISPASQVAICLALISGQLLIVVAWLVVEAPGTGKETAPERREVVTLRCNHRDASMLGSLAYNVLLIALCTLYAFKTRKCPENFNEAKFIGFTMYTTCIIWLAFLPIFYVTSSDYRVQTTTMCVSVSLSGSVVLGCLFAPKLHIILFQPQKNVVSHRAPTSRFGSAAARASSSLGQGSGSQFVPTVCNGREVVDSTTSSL
T1 sequence (P41587 24-438): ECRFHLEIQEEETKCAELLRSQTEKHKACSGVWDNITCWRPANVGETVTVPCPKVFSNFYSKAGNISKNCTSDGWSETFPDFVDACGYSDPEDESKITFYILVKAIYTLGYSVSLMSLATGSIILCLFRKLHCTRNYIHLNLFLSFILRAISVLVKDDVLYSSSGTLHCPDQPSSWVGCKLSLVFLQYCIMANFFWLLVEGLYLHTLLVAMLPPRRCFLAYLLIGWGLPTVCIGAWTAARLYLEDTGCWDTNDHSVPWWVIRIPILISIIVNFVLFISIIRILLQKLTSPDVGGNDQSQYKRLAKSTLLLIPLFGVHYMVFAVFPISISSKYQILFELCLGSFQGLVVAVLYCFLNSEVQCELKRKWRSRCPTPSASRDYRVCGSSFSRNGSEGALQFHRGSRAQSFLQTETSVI

GPCRome screening signal at SSTR2 (320 non-olfactory GPCRs [1]; [5]) | GPCRome screening signal at VIPR2 (320 non-olfactory GPCRs [2]; [5]) | GPCRome screening signal at PTGIR (320 non-olfactory GPCRs [3]; [5]) | GPCRome screening signal at GRM2 (320 non-olfactory GPCRs [4]; [5]) | Compound | GPCRome agonism screen response (320 non-olfactory GPCRs [1]; replicate values, Fig_4g) | GPCRome agonism screen response (320 non-olfactory GPCRs [2]; replicate values, Fig_4g) | GPCRome agonism screen response (320 non-olfactory GPCRs [3]; replicate values, Fig_4g) | GPCRome agonism screen response (320 non-olfactory GPCRs [4]; replicate values, Fig_4g)
1.092 and 1.759 and 1.157 and 0.8246 | 0.8302 and 1.005 and 0.9541 and 0.5143 | 0.4707 and 0.7235 and 1.819 and 1.564 | 0.9548 and 1.3016 and 1.1 and 0.9506 | CCOc1ccccc1CCC(C)NCC1(O)CCCCC1.Cl (racemic) [Fig_5f] | – | – | – | –
– | – | – | – | CCOc1cccc2cc(C(C)NCC3(O)CCCCC3)oc12 (centres unmarked) [O4LE6] | 0.9255 and 0.9659 and 1.077 and 0.7883 | 0.366 and 1.433 and 1.331 and 0.8644 | 1.654 and 0.8806 and 0.8629 and 1.301 | 1.717 and 0.9934 and 0.846 and 0.4952
